From article PMC8625051, “Wound Healing Metabolites from Peters’ Elephant-Nose Fish Oil: An In Vivo Investigation Supported by In Vitro and In Silico Studies” (Marine Drugs, 2021) come the findings set out here.

Structures are written as SMILES.

Holding throughout (format): biochemical
The target in assay [1] is T1, COX-2 (Homo sapiens, UniProt P35354).
T1 construct: purchased Biovision
T1 sequence (P35354 18-604): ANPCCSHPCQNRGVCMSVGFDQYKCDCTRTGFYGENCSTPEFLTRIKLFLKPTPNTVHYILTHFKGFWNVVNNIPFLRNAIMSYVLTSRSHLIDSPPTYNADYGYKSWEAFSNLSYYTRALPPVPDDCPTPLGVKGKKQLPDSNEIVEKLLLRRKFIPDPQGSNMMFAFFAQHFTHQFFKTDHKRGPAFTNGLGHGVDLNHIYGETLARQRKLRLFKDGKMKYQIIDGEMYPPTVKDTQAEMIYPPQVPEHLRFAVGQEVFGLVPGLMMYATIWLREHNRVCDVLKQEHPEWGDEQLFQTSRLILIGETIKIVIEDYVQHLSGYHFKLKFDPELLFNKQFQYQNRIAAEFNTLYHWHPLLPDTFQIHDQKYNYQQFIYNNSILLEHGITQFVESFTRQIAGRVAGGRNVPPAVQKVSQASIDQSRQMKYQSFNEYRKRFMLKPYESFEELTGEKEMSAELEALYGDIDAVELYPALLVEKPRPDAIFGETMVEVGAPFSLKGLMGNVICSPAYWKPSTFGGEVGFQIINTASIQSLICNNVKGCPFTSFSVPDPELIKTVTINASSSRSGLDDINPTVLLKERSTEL
The assay is described as follows: In vitro COX-2 inhibitory assay (fluorometric screening kit, Biovision). The protocol: (§1) The in vitro inhibitory assays of the isolated compounds against COX-1 and COX-2 were determined by using fluorometric-based screening kits (Biovision, Switzerland) according to the manufacturer’s protocol. These assays are based on the detection of the florescence produced by prostaglandin G2, i.e., the intermediate product produced by the COX-1 and -2 enzymes. The enzymes solutions were prepared by adding […] of dd. H2O to the lyophilized enzymes in the kit. The diluted COX cofactor was formulated by mixing the COX assay buffer (398 mL) and COX Cofactor (2 mL). 5 mL of arachidonic acid were added to 5 mL of NaOH and then diluted by 90 mL of double distilled H2O to produce dilute arachidonic acid/NaOH solution. Subsequently, all these prepared solutions were mixed to produce the reaction mixture ([…]). Different concentrations of the test compounds were added to the previous solution. The reaction mixtures were then incubated at 25 °C for 10 min. […] These assays of test compounds, blank, and reference inhibitors were carried out in triplicates. IC50 values were calculated by GraphPad software (version 7.0), where the percentage inhibitions were plotted versus the log concentrations. Dividing the IC50 calculated for […] by the IC50 calculated for […] was applied to determine the Selectivity index (SI).

In assay [2] the target is T2, COX-1 (Ovis aries, UniProt P05979).
T2 construct: purchased Biovision
T2 sequence (P05979 25-600): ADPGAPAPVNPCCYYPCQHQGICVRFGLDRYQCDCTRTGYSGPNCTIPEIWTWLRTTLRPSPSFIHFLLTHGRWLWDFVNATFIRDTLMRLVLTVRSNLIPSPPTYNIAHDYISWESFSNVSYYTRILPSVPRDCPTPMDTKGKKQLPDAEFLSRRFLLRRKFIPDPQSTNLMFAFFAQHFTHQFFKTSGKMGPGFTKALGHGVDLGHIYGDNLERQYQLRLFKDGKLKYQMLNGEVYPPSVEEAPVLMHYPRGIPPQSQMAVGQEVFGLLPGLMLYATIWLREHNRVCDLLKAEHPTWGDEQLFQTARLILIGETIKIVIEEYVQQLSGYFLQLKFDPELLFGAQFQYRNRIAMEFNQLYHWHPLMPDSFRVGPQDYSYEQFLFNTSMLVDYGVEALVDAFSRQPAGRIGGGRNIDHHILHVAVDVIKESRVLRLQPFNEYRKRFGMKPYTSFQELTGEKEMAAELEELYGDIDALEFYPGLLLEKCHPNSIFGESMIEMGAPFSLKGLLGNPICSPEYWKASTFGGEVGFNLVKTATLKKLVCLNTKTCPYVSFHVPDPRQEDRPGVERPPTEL
The assay is described as follows: In vitro COX-1 inhibitory assay (fluorometric screening kit, Biovision). On the procedure: as §1

Assay [3] can be described thus: Superoxide radical scavenging activity. On the procedure:
The superoxide anion scavenging activity was measured as previously performed by […] et al., 2007 [57]. […] The reaction was initiated by adding 0.1 mL PMS solution (0.12 mM) to the mixture, incubated at 25 °C for 5 min., and the optical density was measured at 560 nm, compared to the reference ascorbic acid. The percentage inhibition was calculated using the following formula, Equation (2). (2) Superoxide scavenging activity=A control - A sample/A control×100 IC50 was calculated using Graph pad prism 7 software by performing the test at four different concentrations.

Assay [4] is described as follows: Hydrogen peroxide scavenging activity. The protocol:
The residual H2O2 was determined colorimetrically. Briefly, 20 µL of the sample was added to 500 µL of H2O2 and incubated for 10 min., at 37 °C. […] The optical density of the colored product was measured at 510 nm using ascorbic acid as a positive control. The percentage of H2O2 scavenging activity was calculated by using the following formula (Equation (1)). (1) Scavenging activity=A control – A sample/A control×100 IC50 of each sample was determined at four different concentrations using Graph pad prism 7 software.

Turning to `CCCCCC/C=C\CCCCCCCC(=O)O` [Compound 1, palmitoleic acid], the IC50 in assay [1] and in assay [2] was greater than 100 µM in each case.

In the case of `CCCCCCCCCCCCCCCC(=O)O` [Compound 2, palmitic acid], the IC50 in assay [1] and in assay [2] was greater than 100 µM in each case.

With `CCCCCCCC/C=C\CCCCCCCC(=O)O` [Compound 3, oleic acid], the IC50 in assay [1] and in assay [2] was greater than 100 µM throughout.

`CCCCCCC=CCC=CCC=CCC=CCCCCC(=O)O` [Compound 4, 6,9,12,15-docosatetraenoic acid]: the IC50 (as a rule, the midpoint of a concentration-inhibition curve) was determined as 2.41 ± 0.2 µM in assay [1] and 18.5 ± 0.4 µM in assay [2]. The COX-2/COX-1 in assay [1] (selectivity index, ratio of IC50 values) amounted to 0.13.

Regarding `CC(C)CCC[C@@H](C)[C@H]1CC[C@H]2[C@@H]3CC=C4C[C@@H](O)CC[C@]4(C)[C@H]3CC[C@]12C` [Compound 5, cholesterol], the IC50 in assay [1] and in assay [2] was greater than 100 µM throughout.

`CCCCCCCCCCc1ccccc1O` [Compound 6, 2-decylphenol]: the IC50 in assay [1] and in assay [2] was greater than 100 µM in each case.

Take `O=C1O[C@H]([C@@H](O)CO)C(O)=C1O` [ascorbic acid]: the “superoxide radical scavenging IC50” value in assay [3] was 164 µg/mL. Besides, the “H2O2 scavenging IC50” value in assay [4] worked out at 174.2 µg/mL.
